In PMC5770468, “Cardiac glycoside/aglycones inhibit HIV-1 gene expression by a mechanism requiring MEK1/2-ERK1/2 signaling” (Scientific Reports, 2018):

Experiments:
[1] = system: PBMCs from HIV-infected patients; assay: Cell viability by XTT in HIV-infected patient PBMCs; assay type: cell-based, human; conditions: up to 20 d of culture, relative to controls
Method: Figure 2 CSs inhibit the growth of clinical strains of HIV isolated from HIV infected patients. PBMCs from HIV infected patients were depleted of CD8^+ T cells (Supplementary Fig. S3), activated by anti-CD3 and anti-CD28 antibodies, and treated 20 d with indicated concentrations of drug/compound. HIV particle formation was quantitated by p24^CA ELISA of cell supernatants and viability of cells were assayed by XTT. […] (a–e) CSs potently impair the outgrowth of HIV from HIV-infected PBMCs (n = 3, mean, s.e.m.). Graphs of viral growth (p24 protein levels) and cell viability (gray circles, adjacent y-axis) of cells treated with drug/compounds (red triangles) or DMSO (black circles) are shown. The drug 3TC and the CS digoxin (d–e) were provided for comparison. […] Dose-response curves of CS effects on HIV replication (relative Gag expression, black circles) and cell viability (gray circles) were measured on day 14.
Human PBMCs were obtained for experiments from drug-naïve HIV-infected patients, depleted of CD8^+ T cells using Dynabeads CD8 (Invitrogen, #111.47D), activated with anti-CD3 and anti-CD28 antibodies, and treated as previously described and above[10],[11]. […] HIV growth in cultures was monitored by p24^CA ELISA of cell supernatants harvested (detailed below) and the effect of compounds on cell viability were monitored by XTT assay.

clinical strains of HIV = system: clinical strains of HIV; set-up: method as in PMID 23555254, PMID 17706876; conditions: cited from earlier work
HIV-1 Gag expression = assay: HIV-1 Gag-GFP expression in HeLa rtTA-HIV(Gag-GFP) cells; assay type: cell-based; conditions: 220 nM
Method: Figure 7 Activation of the MEK1/2-ERK1/2 signaling pathway suppresses HIV-1 gene expression. HeLa rtTA-HIV(Gag-GFP) cells were pre-treated overnight (~15 h) with/without an inhibitor of MEK1/2 (12 μM U0126, MEKi, white), p38α/β/β2 (15 μM SB203580, p38i, light gray), JNK1/2/3 (1.25 μM SP600125, JNKi, hatched), or NCX (5 μM KB-R7943, NCXi, gray) and treated with a MEK1/2-ERK1/2 activator, anisomycin, to isolate the pathway signal as described (and run in parallel for verification of inhibitor activity) in Figures 6 and 5d–f. Cells were monitored for HIV-1 gene expression by detecting Gag-GFP fluorescence in cell lysates (35 μg) resolved on reducing SDS-PAGE, levels of ERK activation by immunoblotting of phospho- and total-ERK from cell lysates, and extent of viral RNA expression by qRT-PCR of mRNAs extracted. […] RNAs were quantified by qRT-PCR as described in Figures 4a,b. […]
Using the same methods and conditions described for HeLa rtTA-HIV-ΔMls cells, HeLa rtTA-HIV(Gag-GFP) cells were seeded in 48-/12-well plates and pretreated with/without pathway inhibitor prior to treatment with drug/compounds and Dox. […] HIV-1 gene expression was determined by detecting Gag-GFP fluorescence in cells by plate scans using a Typhoon Imager 9400 (Amersham Biosciences) or Typhoon FLA 9400 (GE) on ImageQuant, cell lysates by SDS-PAGE captured on ChemiDoc MP, or cell lysates by p24^CA ELISA. […]

Row | Compound | cell viability of HIV-infected PBMCs [1] | also measured
1 | C[C@]12CC[C@H](O)C[C@H]1CC[C@@H]1[C@@H]2CC[C@]2(C)[C@@H](C3=CC(=O)OC3)CC[C@]12O [Digitoxigenin] | no observable changes in cell viability | –
2 | C[C@H]1O[C@@H](O[C@H]2[C@@H](O)C[C@H](O[C@H]3[C@@H](O)C[C@H](O[C@H]4CC[C@@]5(C)[C@H](CC[C@@H]6[C@@H]5CC[C@]5(C)[C@@H](C7=CC(=O)OC7)CC[C@]65O)C4)O[C@@H]3C)O[C@@H]2C)C[C@H](O)[C@@H]1O [Digitoxin] | no observable changes in cell viability | –
3 | C[C@H]1O[C@@H](O[C@H]2[C@@H](O)C[C@H](O[C@H]3[C@@H](O)C[C@H](O[C@H]4CC[C@@]5(C)[C@H](CC[C@@H]6[C@@H]5C[C@@H](O)[C@]5(C)[C@@H](C7=CC(=O)OC7)CC[C@]65O)C4)O[C@@H]3C)O[C@@H]2C)C[C@H](O)[C@@H]1O [Digoxin] | – | effective ex vivo concentration, fold below serum concentration of patients treated for heart conditions (digoxin) (clinical strains of HIV): 2–6 fold
4 | COc1ccc(C[C@H]2NC[C@H](O)[C@H]2OC(C)=O)cc1 [anisomycin, Anisomycin] | – | HIV-1 Gag expression (HIV-1 Gag expression): inhibited
